This note sets out measurements from US10973810B2, “Methods for the treatment of neurological disorders” (Yumanity Therapeutics, Inc., priority 2017, dated 2021).

One experiment has as its system yeast. Put plainly: Yeast growth inhibition in control / wild-type condition (OD600). In kind it is cell-based, Saccharomyces cerevisiae. Conditions: ApoE4 strain under non-inducing conditions (raffinose); at concentrations just above Emax of rescue. The source says: Strain GMYF was constructed from the ABC16/Green monster strain described in Suzuki et al. Nat. Methods 8(2):159-164, 2011. In this strain, YAP1 was deleted using a HIS3-MX6 cassette, and FLR1 was deleted using a NAT-MX6 cassette using standard methods. The knockout cassettes were PCR-amplified from plasmid templates (see, e.g., Bahler et al. Yeast 14(10):943-951, 1998; Longtine et al. Yeast 14(10):953-961, 1998) and transformed into yeast using lithium acetate-based transformation (Gietz et al. Methods Mol. Biol. 1205:1-12, 2014). The yap1::his3 deletion strain was selected on media lacking histidine and flr1::NAT on plates containing 100 μg/mL nourseothricin. All strains were confirmed by diagnostic PCR. Strain W303 pdr1Δ pdr3Δ was constructed from W303-1A (American Type Culture Collection (ATCC) 208352) by deleting PDR1 and PDR3 with kan-MX6 cassettes separately in MATa and MATa W303a isolates, mating, sporulating, and identifying the double deletion haploids by tetrad dissection and identification of non-parental ditype tetrads. Strain W-erg3 was derived from W303 pdr1 Δ pdr3Δ by deleting SNQ2 with NAT-MX6, YAP1 with HIS3-MX6, and ERG3 with BleMX. […]
(§1) After yeast delivery, assay plates were incubated under humidified conditions at 30° C. for 24 to 40 h. […] The growth of yeast was monitored by reading the OD600 of each well using a microplate reader (Perkin Elmer EnVision™). […]

Another experiment has as its system ApoE4. Put plainly: ApoE4 Alzheimer's disease yeast model, rescue of toxicity (OD600 growth). In kind it is cell-based, Saccharomyces cerevisiae. The note with it: 12-point dose; ApoE4 expression induced.
Excerpt: Strain ApoE-mga2Δ was generated by amplifying 1000 base pairs (bp) upstream and downstream of the MGA2 ORF in a strain in which MGA2 was deleted using a G418 (GENETICIN®) resistance cassette (kanMX) (Piotrowski et al. Proc. Natl. Acad. Sci. USA 112(12):E1490-1497, 2015) and transforming the resulting deletion cassette into the ApoE4 strain in the BY4741 (ATCC 201388) genetic background. The ApoE strain is described, for example, in International Patent Application Publication No. WO 2016/040794, which is incorporated herein by reference in its entirety.
Yeast were cultured using standard techniques in complete synthetic media (CSM) and yeast nitrogen base supplemented with 2% (w/v) carbon source (glucose, raffinose, or galactose) to regulate the expression of the toxic disease protein. An initial starter culture was inoculated in 3 mL CSM-Glucose media and incubated overnight in a 30° C. shaker incubator (225 rpm). Saturated morning cultures were then diluted 1:20 in fresh CSM-Raffinose media and grown for 6 h to an OD600 (optical density) of 0.4-0.8 at 30° C. with shaking. […]
as §1

Experiment [1] relates to cellular fatty acid desaturase activity (Ole1). As to the kind of experiment: Quantitative lipid profiling of treated yeast cells by LC-MS/MS. It counts as cell-based, Saccharomyces cerevisiae. As for the experimental part: FIGS. 8A-8D are graphs showing that treatment of yeast cells with the 1,2,4-oxadiazole Compound 2 inhibits lipid desaturation. Exponentially-growing wild-type yeast cells were treated with the indicated doses of the 1,2,4-oxadiazole Compound 2 for the indicated times before cellular lysis, lipid extraction, and analysis by global LC-MS/MS profiling. The relative abundance (fraction of total cellular lipid signal) after 1.5 h and 8 h of the most abundant saturated lipid, phosphatidylcholine 26:0, is depicted in FIGS. 8A and 8B, respectively. The relative abundance after 1.5 h and 8 h drug treatment of the most abundant lipid with 2 or more degrees of unsaturation, phosphatidylcholine 16:1; 18:1, is depicted in FIGS. 8C and 8D, respectively.
Overnight cultures of yeast strain W303 pdr1Δ pdr3Δ were diluted into CSM media with 2% (w/v) raffinose, OD600 0.25, and grown for 4 h before resuspending at an OD600 of 0.2 in CSM media with 2% (w/v) galactose and adding Compound 2 or DMSO at the indicated concentrations. Cells were grown for the indicated timepoints before centrifugation, washing once in PBS, and freezing pellets. Lipids were extracted from pellets by resuspending the pellets in 600 μL methanol, 300 μL water, and 400 μL chloroform, followed by cell lysis by vortexing with glass beads for 1 min. Samples were then centrifuged at 10,000×g for 10 min, and the bottom layer that formed (organic/lipids) was moved into a new tube and evaporated. Samples were then analyzed by LC/MS/MS using a Thermo Scientific Q Exactive™ Orbitrap™ coupled to a Dionex UltiMate® 3000 ultra-high performance liquid chromatography system, following the method described in Tafesse et al. PLoS Pathog. 11(10): e1005188, 2015.

The next experiment has as its target T1, yeast OLE1 (Saccharomyces cerevisiae, UniProt P21147, L450T/T449L).
T1 construct: expressed in transfected cells; host or cells: S. cerevisiae ole1Δ strain (W303 pdr1Δ pdr3Δ background), plasmid pRS316 with TDH3 promoter and CYC1 terminator
As to the kind of experiment: Growth of yeast surviving solely on yeast OLE1. The note with it: 24 h. It counts as cell-based. The text has this: (§2) To generate yeast strains expressing SCD1 or SCD5 as the sole desaturase, the human SCD1 and SCD5 genes were cloned from cDNAs (Harvard PlasmID database Clone ID HsCD00340237 for SCD1 and HsCD00342695 for SCD5) into yeast plasmid pRS316 (ATCC 77145) between the yeast TDH3 promoter and the CYC1 terminator. The coding sequence of yeast OLE1 was also cloned into this plasmid). These clones were then transformed into the ole1d strain and plated on CSM-Ura media (CSM lacking uracil) with 2% glucose (w/v) and independent colonies were isolated and amplified.
(§3) For experiments using a plasmid-borne copy of Ole1, SCD1, or SCD5 (FIGS. 3B, 6, and 7), media lacking uracil (SX-Ura, where X is glucose, raffinose, or galactose), was used for all steps of the compound profiling protocol to ensure its maintenance throughout the assay.
(§4) After yeast delivery, assay plates were incubated under humidified conditions at 30° C. for 24 to 40 h. ApoE4 rescue experiments were stopped at 24 h, aSyn experiments at 40 h, Ole1 at 24 h, and SCD1/SCD5 at 40 h. The growth of yeast was monitored by reading the OD600 of each well using a microplate reader (Perkin Elmer EnVision™). For model rescue experiments, raw data were processed by background subtracting and calculating a fold-change relative to DMSO control [(EXP-0.035)/(DMSO-0.035)—where 0.035 is the OD600 contributed by an empty well containing 30 μL of media alone]. For growth inhibition of wild-type cells, raw data were processed by background subtracting and converting values to a percent of the nontreated condition for that strain [(EXP-0.035)/(DMSO-0.035)×100%].

The target in another experiment is T2, human SCD1 (Homo sapiens, UniProt O00767).
T2 construct: host or cells: S. cerevisiae ole1Δ strain (W303 pdr1Δ pdr3Δ background), plasmid pRS316 with TDH3 promoter and CYC1 terminator
T2 sequence (O00767 1-359): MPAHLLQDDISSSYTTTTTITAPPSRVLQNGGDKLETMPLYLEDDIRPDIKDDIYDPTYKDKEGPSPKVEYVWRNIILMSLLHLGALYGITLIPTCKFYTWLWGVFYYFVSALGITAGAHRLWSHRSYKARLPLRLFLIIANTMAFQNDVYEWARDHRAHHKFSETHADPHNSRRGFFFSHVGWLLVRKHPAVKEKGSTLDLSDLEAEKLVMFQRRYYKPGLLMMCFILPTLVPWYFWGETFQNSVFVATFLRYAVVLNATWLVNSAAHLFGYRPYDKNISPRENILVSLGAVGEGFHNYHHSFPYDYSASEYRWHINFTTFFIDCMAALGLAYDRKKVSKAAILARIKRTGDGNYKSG
As to the kind of experiment: Growth of humanized yeast surviving solely on human SCD1. The note with it: for half-maximal inhibitory concentration (IC50), SCD1 humanized strain: growth inhibition. It counts as cell-based.
Excerpt: The coding sequence of yeast OLE1 was also cloned into this plasmid). These clones were then transformed into the ole1d strain and plated on CSM-Ura media (CSM lacking uracil) with 2% glucose (w/v) and independent colonies were isolated and amplified.
as §3
After yeast delivery, assay plates were incubated under humidified conditions at 30° C. for 24 to 40 h. ApoE4 rescue experiments were stopped at 24 h, aSyn experiments at 40 h, Ole1 at 24 h, and SCD1/SCD5 at 40 h. The growth of yeast was monitored by reading the OD600 of each well using a microplate reader (Perkin Elmer EnVision™).

Another experiment deals with T3, human SCD5 (Homo sapiens, UniProt Q86SK9).
T3 construct: host or cells: S. cerevisiae ole1Δ strain (W303 pdr1Δ pdr3Δ background), plasmid pRS316 with TDH3 promoter and CYC1 terminator
T3 sequence (Q86SK9 1-330): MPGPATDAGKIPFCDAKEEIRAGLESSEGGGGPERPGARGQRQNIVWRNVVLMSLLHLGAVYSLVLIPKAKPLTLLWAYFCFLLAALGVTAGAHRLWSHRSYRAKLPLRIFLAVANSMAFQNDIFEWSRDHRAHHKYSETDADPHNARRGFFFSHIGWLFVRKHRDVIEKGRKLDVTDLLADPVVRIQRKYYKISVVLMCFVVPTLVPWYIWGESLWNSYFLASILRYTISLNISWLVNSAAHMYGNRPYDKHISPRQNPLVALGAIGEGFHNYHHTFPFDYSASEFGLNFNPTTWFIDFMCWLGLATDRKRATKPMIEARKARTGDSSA
Put plainly: Growth of humanized yeast surviving solely on human SCD5. In kind it is cell-based. The note with it: for half-maximal inhibitory concentration (IC50), SCD5 humanized strain: growth inhibition.
Excerpt: as §2, §3, §4

T1 sequence (P21147 whole entry T449L/L450T): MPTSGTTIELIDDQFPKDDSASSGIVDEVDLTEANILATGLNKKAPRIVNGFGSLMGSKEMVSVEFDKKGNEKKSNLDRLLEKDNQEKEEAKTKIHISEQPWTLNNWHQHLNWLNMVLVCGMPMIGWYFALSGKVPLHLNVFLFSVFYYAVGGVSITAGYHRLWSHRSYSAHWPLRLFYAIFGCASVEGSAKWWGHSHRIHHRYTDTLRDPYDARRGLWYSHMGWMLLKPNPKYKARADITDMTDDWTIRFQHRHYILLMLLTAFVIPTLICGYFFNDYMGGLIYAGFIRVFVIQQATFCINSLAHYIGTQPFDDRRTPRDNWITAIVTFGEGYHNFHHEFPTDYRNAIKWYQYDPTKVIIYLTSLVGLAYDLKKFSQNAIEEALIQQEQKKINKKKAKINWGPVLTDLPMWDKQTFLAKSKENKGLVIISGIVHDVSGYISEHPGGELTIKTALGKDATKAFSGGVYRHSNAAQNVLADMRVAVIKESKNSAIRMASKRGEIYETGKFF

As to `COc1ccc(-c2noc(C3CCN(C(=O)CNC(=O)c4ccccc4)CC3)n2)cc1OC` [Compound 1, N-(2-(4-(3-(3,4-dimethoxyphenyl)-1,2,4-oxadiazol-5-yl)piperidin-1-yl)-2-oxoethyl)benzamide], the “growth in control condition” value with yeast is listed as “growth decreased”. In the experiment on ApoE4, the “rescue in ApoE4 model, dose-response curve (raw OD600)” value is recorded as “bell-shaped dose-response curve”.

Regarding `Cc1nn(C)c2cc(-c3noc(C4CCN(C(=O)CNC(=O)c5ccccc5)CC4)n3)ccc12` [Compound 2, N-(2-(4-(3-(1,3-dimethyl-1H-indazol-6-yl)-1,2,4-oxadiazol-5-yl)piperidin-1-yl)-2-oxoethyl)benzamide], the “lipid desaturation in yeast cells” value in experiment [1] is given as “inhibited lipid desaturation”. The “decrease in abundance of unsaturated lipid phosphatidylcholine 16:1, 18:1” value in experiment [1] (8 h treatment, wild-type yeast) is listed as above 12 fold. For the same compound, in experiment [1] (after 8 h treatment, wild-type yeast), the “increase in abundance of saturated lipid phosphatidylcholine 26:0” value is recorded as above 300 fold.

On to `CNC(=O)c1cccc(NC(=O)N2CCC(Oc3ccccc3Cl)CC2)c1` [Compound A939572], for which the “growth of yeast strain expressing Ole1 (percent of DMSO-treated condition)” value at yeast OLE1 was “resistant”. Besides, the “half-maximal inhibitory concentration (IC50), SCD1 humanized strain” value at human SCD1 is “low nanomolar”. The “half-maximal inhibitory concentration (IC50), SCD5 humanized strain” value at human SCD5 is reported as “low nanomolar”.

`C[C@@H]1C[C@@H]([C@H](O)CC2CC(=O)NC(=O)C2)C(=O)[C@@H](C)C1` [Cyclohexamide]: at yeast OLE1, the “growth of yeast strain expressing Ole1 (percent of DMSO-treated condition)” value is given as “inhibited growth of all three strains with the same potency”. Besides, on human SCD1 (40 h), the “growth of SCD1-expressing yeast (percent of DMSO-treated condition)” value was “inhibited growth of all three strains with the same potency”. Moreover, the “growth of SCD5-expressing yeast (percent of DMSO-treated condition)” value at human SCD5 (40 h) was “inhibited growth of all three strains with the same potency”.

As to `Cc1nnc(-c2ccc(N3CCC(Oc4ccccc4C(F)(F)F)CC3)nn2)s1` [MF-438], the “growth of yeast strain expressing Ole1 (percent of DMSO-treated condition)” value at yeast OLE1 was “resistant”. The “half-maximal inhibitory concentration (IC50), SCD1 humanized strain” value at human SCD1 was “low nanomolar”. Further, at human SCD5, the “half-maximal inhibitory concentration (IC50), SCD5 humanized strain” value is reported as “low nanomolar”.

On to `O=C(O)Cn1nnc(-c2cc(N3CCC(Oc4cc(F)ccc4Br)CC3)no2)n1` [MK-8245], for which, on yeast OLE1, the “growth of yeast strain expressing Ole1 (percent of DMSO-treated condition)” value is on record as “resistant”. Further, on human SCD5, the “half-maximal inhibitory concentration (IC50), SCD5 humanized strain” value is reported as “low nanomolar”.
